# Entries after “also recorded” stand apart in the source; their conditions may differ. Numbered stars: 1 amine (or outer) side, 2 acyl side, 3 side chain; on linkers, the order of the positions; unused ones are H or OH. Bridge positions count the residues as written; N and C are the ends. Square brackets hold non-standard residues; d marks the D form. Peptide text beside a SMILES is read from it. I, II: the chains in the order shown. Actinocin(9to1) = Cc1c2oc3c(C)ccc(C(=O)[*:1])c3nc-2c(C(=O)[*:2])c(N)c1=O; NMeV = CN[C@H](C(=O)O)C(C)C; Sar = CNCC(=O)O
# How the values were obtained:
# eNOS = eNOS activity assay (conversion of [3H]-arginine to [3H]-citrulline) in treated human endothelial cells; assay type: cell-based; conditions: for effect on E2-stimulated eNOS activity, later phase (≥15 min) or 30 min / effect on E2-stimulated eNOS activity, initial phase (first 5-10 min): E2 10 nM, wortmannin 30 nM, genistein 50 μM, PD98059 5 μM; for effect on E2-stimulated eNOS activity, later phase (≥15 min) or 30 min: ICI 10 μM, actinomycin D 2 h pretreatment
# Description: Fetal bovine serum was deprived of estrogen by charcoal-stripping. Once grown to confluence the cells were replated on 1.5% gelatin-coated flasks at 20000 cells/cm^2. […] Cell number was assessed by direct cell counting of adherent cells, after trypsin detachment, in a Neubauer hemocytometer (VWR Scientifics). The percentage of cells excluding Trypan Blue after staining with the compound was taken as a measure of cell viability.
# Endothelial cells were grown to confluence on 55 cm^2 culture dishes, treated according to the indicated conditions, and harvested in ice-cold PBS containing 1 mM EDTA. The cell lysates were pelleted in a microfuge (2 minutes, 13000 rpm, 4° C.) and subsequently homogenized in a buffer containing 25 mM Tris-HCl, pH 7.4, 1 mM EDTA, 1 mM EGTA. eNOS activity was determined by measuring the conversion of [^3H]-arginine to [^3H]-citrulline. Rat cerebellum extracts, containing elevated amounts of neuronal NOS, were used as positive controls, while endothelial cell extracts incubated in the presence of the competitive eNOS inhibitor L-NAME (1 mM) served as negative controls.
# Human and bovine aortic endothelial cells were harvested enzymatically with Type IA collagenase (1 mg/mL).
# Akt/PKB [1] = assay: Akt kinase assay (immunoprecipitated Akt, GSK-3 peptide); assay type: cell-based, human; conditions: E2/αE2 10 nM, insulin 100 nM, 20 min
# Description: Immunoprecipitated Akt kinase activity was assayed on endothelial cell lysates by using the Aktl/PKBα immunoprecipitation kinase assay kit (Upstate Biotechnology, Lake Placid, N.Y.). Endothelial cells were starved in phenol red-free199 medium with 0.4% estrogen-deprived FBS, treated, washed, and then harvested in ice-cold Buffer A (50 mM Tris-HCl, pH 7.5, 1 mM EDTA, 1 mM EGTA, […] Na3VO4, 0.1% (v/v) 2-mercaptoethanol, 1% Triton X-100, 50 mM sodium fluoride, 5 mM sodium pyrophosphate, 10 mM sodium glycerophosphate, 0.1 mM PMSF, 1 μg/mL of aprotinin, pepstatin, leupeptin and 1 μM microcystin). The cleared cell lysates were incubated for 1 hour at 4° C. with 4 μg/tube of anit-Akt1/PKBα PH domain immunoaffinity purified sheep IgG, after which 50 μL of a 1:1 (v/v) protein G-agarose slurry was added for an additional hour of incubation at 4° C. After centrifugation, the immunoprecipitates were washed three times with Buffer A containing 0.5 M NaCl, then two times with Buffer B (50 mM Tris-HCl, pH 7.5, 0.03% (w/v) Brij-35, 0.1 mM EGTA, 0.1% (v/v) 2-mercaptoethanol), and finally twice with 1×Assay Buffer (20 mM MOPS, pH 7.2, 25 mM β-glycerol phosphate, 5 mM EGTA, 1 mM Na3VO4, 1 mM DTT).
# The immunoprecipitates were resuspended in 10 μL of ice-cold 1×Assay Buffer, and were sequentially added: 10 μL of 40 μM PKA inhibitor peptide ([…]-NH2—corresponding to residues 7-23 of human PKA inhibitor), 10 μL of Akt/PKB specific substrate peptide (100 μM) (RPRAATF—corresponding to the phosphorylation site of glycogen synthase kinase-3, specifically targeted by Akt/PKB, but not by other protein kinases such as Rsk-2 and p70 S6 kinase), and 10 μL of [γ-^32P]ATP stock solution (1×Assay Buffer with 500 μM ATP, 75 mM MgCl2, containing 1 μCi/μL [γ^32-P]ATP, 3000 Ci/mmol). The reaction was incubated at 37° C. for 30 minutes, after which 40 μL of the supernatant was mixed with 20 μL of 40% TCA and incubated for 5 minutes at room temperature. 40 μL of each final fraction were spotted onto the center of a 2 cm×2 cm P81 phosphocellulose paper. The assay squares were washed three times with 0.75% phosphoric acid for five minutes at room temperature, then once with acetone. The squares were then transferred to vials containing a liquid scintillation cocktail and read in a scintillation counter. Blank reaction for the detection of the unspecific background were performed by substituting the cell lysate with Buffer A at the beginning of the procedure, and aspecific endogenous phosphorylation of proteins in the sample extract was estimated by substituting in some samples 1×Assay Buffer for the Akt/PKB specific substrate peptide.
# PI3-kinase = PI3-kinase assay on p85 immunoprecipitates of endothelial cell lysates; assay type: cell-based, human; conditions: for stimulation of PI3-kinase activity: 20 min, E2/αE2 10 nM, insulin 100 nM
# Description: PI3kinase activity in endothelial cell lysates was assayed using the borate thin layer chromatography method, as described.^34 Following a 6 h incubation in serum- and estrogen-deficient medium 199, endothelial cells were treated according to the indicated conditions, washed, and harvested in ice-cold lysis buffer (137 mM NaCl, 20 mM Tris-HCl, pH 7.4, 1 mM CaCl2, 1 mM Mg Cl2, 0.1 mM Na3VO4, 1% NP-40). After pelleting the cell debris, the supernatant was incubated for 1 hour at 4° C. with 5 μL of a rabbit antiserum directed against the p85 regulatory subunit of the PI3-kinase (Upstate Biotechnology, Lake Placid, N.Y.), and immunoprecipitated with the addition of 50 μL of a 1:1 slurry of protein A-agarose for 1 hour at 4° C. Following centrifugation, the immunoprecipitates were washed three times with lysis buffer, three times with 0.1 M Tris-HCl, pH 7.4, 5 mM LiCl, 0.1 mM Na3VO4, followed by two washes with 10 mM Tris-HCl, pH 7.4, 150 mM NaCl, 5 mM EDTA, 0.1 mM Na3VO4.
# The immunoprecipitates were then mixed with 50 μL Tris-HCl, pH 7.4, 150 mM NaCl, 5 mM EDTA, 20 μg of phosphatidylinositol (Sigma, Saint Louis, Mo.), 10 μL 100 mM MgCl2 and 5 μL of a 0.88 mM ATP, 20 mM MgCl2 solution, containing 30 μCi of [γ-^32P]ATP (3000 Ci/mmol; NEN Life Science Products, Boston, Mass.). […] The phospholipids were extracted with 160 μL of chloroform/methanol (1:1, v/v). 50 μL of the organic phase, containing the labeled PI3-kinase products were separated by borate thin layer chromatography on glass-backed Silica Gel 60 plates (EM Separations, Gibbstown, N.J.) pretreated with a solution containing 25 mM trans-1,2-diaminocyclohexane-N,N,N′N′-tetraacetic acid (CDTA, Sigma, Saint Louis, Mo.), 66% (v/v) ethanol and 0.06 N NaOH, dried for 1 hour and then baked at 100° C. for 15 minutes. The chromatography was developed with a solution containing 37.5% (v/v) methanol, 30% (v/v) chloroform, 22.5% (v/v) pyridine (Sigma, Saint Louis, Mo.), 1.33% (v/v) formic acid, […] boric acid and 8.5 mM butylated hydroxytoluene (Sigma, Saint Louis, Mo.), briefly dried and exposed to autoradiography.
# NO release = assay: Nitrite assay (NO accumulation from endothelial cells); assay type: cell-based, human; conditions: 30 min; E2/αE2 10 nM, insulin 100 nM, acetylcholine
# Description: NO accumulation from serum-starved endothelial cells was determined by a modified nitrite assay using 2, 3 diaminonaphtalene as described previously.^33 Fluorescence of 1-(H)-naphtotriazole was measured with excitation and emission wavelengths of 365 and 450 nm, respectively. Standard curves were constructed with known amounts of sodium nitrite. Nonspecific fluorescence was determined in the presence of LNMA (3 mM).
# Akt/PKB [2] = assay: Immunoblotting of Akt phosphorylation (Thr 308, Ser 473); assay type: cell-based, human; conditions: E2/αE2 10 nM, insulin 100 nM, 20 min
# Description: (§1) After the different treatments, serum-starved endothelial cells were rinsed once with ice-cold PBS before addition of the lysis buffer (100 mM Tris-HCl, pH 6.8, 4% SDS, 20% glycerol, 1 mM sodium orthovanadate, 1 mM NaF, and 1 mM phenylmethylsulfonylfluoride) to the dishes on an ice tray. The cell lysates were scraped, boiled, and centrifuged for 2 min at 13000 rpm. Total cell lysates (40 μg of protein) and low range molecular weight markers (BIO-RAD, Hercules, Calif.) were separated by SDS-polyacrylamide gel electrophoresis (12% running, 4% stacking), electrophoretically transferred to polyvinylidene fluoride membranes (Immobilon P, 0.45 μm pore size) and incubated overnight at 4° C. with blocking solution (5% skim milk in TBS—0.1% Tween 20). Affinity-purified rabbit antibodies (0.4 μg of IgG/ml) vs. Akt, (Ser 473) phospho-Akt or (Thr 308) phospho-Akt (New England BioLabs, Beverly, Mass.), Erk1/2, (Tyr 204) phospho-Erk-1/-2 (Calbiochem, San Diego, Calif.) were incubated with the membranes overnight at 4° C. in TBS—0.1% Tween 20 containing 5% BSA. The blots were washed three times with TBS—0.1% Tween 20 and then treated with donkey anti-rabbit antibody (1:4000 dilution) coupled to horseradish peroxidase. Immunodetection was accomplished using the enhanced chemoluminescence kit (ECL Kit, Amersham Corp.).
# ER-α / PI3-kinase p85α = target: T1, ER-α / PI3-kinase p85α (Homo sapiens, UniProt P03372); assay: ER-α immunoprecipitation: co-precipitated p85α and associated PI3-kinase activity; assay type: cell-based; conditions: ICI 10 μM, wortmannin, tamoxifen 1 μM, PD 98059 5 μM, actinomycin D 5 μM
# T1 construct: endogenous in cells; host or cells: human endothelial cells (HSVEC), anti-ERα immunoprecipitate
# T1 sequence (P03372 1-595): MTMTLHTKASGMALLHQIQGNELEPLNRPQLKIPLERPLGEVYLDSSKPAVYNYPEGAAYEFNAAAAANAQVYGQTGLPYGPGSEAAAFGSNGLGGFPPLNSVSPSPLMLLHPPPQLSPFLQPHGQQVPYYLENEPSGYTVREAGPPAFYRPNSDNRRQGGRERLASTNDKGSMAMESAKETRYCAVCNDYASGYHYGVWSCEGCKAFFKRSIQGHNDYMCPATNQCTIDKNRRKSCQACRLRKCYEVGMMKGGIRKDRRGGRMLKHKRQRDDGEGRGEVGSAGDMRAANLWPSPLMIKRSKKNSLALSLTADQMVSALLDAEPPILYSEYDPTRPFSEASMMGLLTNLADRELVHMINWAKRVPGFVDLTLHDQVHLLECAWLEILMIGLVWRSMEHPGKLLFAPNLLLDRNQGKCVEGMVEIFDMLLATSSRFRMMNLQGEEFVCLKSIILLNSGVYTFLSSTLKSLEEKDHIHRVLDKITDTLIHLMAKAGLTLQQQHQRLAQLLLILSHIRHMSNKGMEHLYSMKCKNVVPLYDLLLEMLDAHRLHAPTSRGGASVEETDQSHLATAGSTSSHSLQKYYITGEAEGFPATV
# ERK 1 and 2 = assay: Immunoblotting of ERK 1/2 phosphorylation; assay type: cell-based, human; conditions: E2 10 nM, PD 98059 5 μM
# Description: as §1
smiles,measurement,setting,value
C[C@]12CC[C@@H]3c4ccc(O)cc4CC[C@H]3[C@@H]1CC[C@H]2O [17α-estradiol],stimulation of eNOS activity by the substance alone,"eNOS; E2/αE2 10 nM, insulin 100 nM, 30 min",no effect; also recorded: inability
same,stimulation of Akt kinase activity (words),Akt/PKB [1],ineffective
same,stimulation of Akt kinase activity (words),Akt/PKB [1]; listed as 17a-estradiol,small increase
same,stimulation of PI3-kinase activity,PI3-kinase,ineffective; also recorded: inability
same,stimulation of PI3-kinase activity,PI3-kinase; listed as αE2,lack
same,stimulation of NO release / production (nitrite accumulation),NO release,very low effect; also recorded: inability
same,Akt Ser 473 phosphorylation,Akt/PKB [2],ineffective
same,Akt threonine (Thr 308) phosphorylation,Akt/PKB [2],ineffective; also recorded: minimal increase
COc1cccc(-c2cc(=O)c3ccccc3o2)c1N [PD98059],"effect on E2-stimulated eNOS activity, later phase (≥15 min) or 30 min",eNOS,only minimally affected; also recorded: not the later phase; also recorded: little or no inhibitory effect
same,"effect on E2-stimulated eNOS activity, later phase (≥15 min) or 30 min",eNOS; listed as PD 98059,do not block
same,"effect on E2-stimulated eNOS activity, initial phase (first 5-10 min)",eNOS,able to block; also recorded: significantly blocked
same,"effect on E2-stimulated eNOS activity, initial phase (first 5-10 min)",eNOS; listed as PD 98059,blunt
same,effect on E2-stimulated ER-α-associated PI3-kinase activity,ER-α / PI3-kinase p85α,not
same,effect on E2-induced PI3-kinase activation,"PI3-kinase; E2 10 nM 20 min, ICI 10 μM, wortmannin 30 nM",only minimally affected
same,effect on E2-stimulated ERK-1 and -2 phosphorylation,ERK 1 and 2,inhibited
same,effect on E2-stimulated ERK-1 and -2 phosphorylation,ERK 1 and 2; listed as PD 98059,abolished
"Cc1c2oc3c(C)ccc(C(=O)N[C@@H]4C(=O)N[C@H](C(C)C)C(=O)N5CCC[C@H]5C(=O)N(C)CC(=O)N(C)[C@@H](C(C)C)C(=O)O[C@@H]4C)c3nc-2c(C(=O)N[C@@H]2C(=O)N[C@H](C(C)C)C(=O)N3CCC[C@H]3C(=O)N(C)CC(=O)N(C)[C@@H](C(C)C)C(=O)O[C@@H]2C)c(N)c1=O [actinomycin D] (I: T[dV]P[Sar][NMeV] / II: T[dV]P[Sar][NMeV]; ester I:1-I:C, II:1-II:C; linker I:N-II:N via Actinocin(9to1))","effect on E2-stimulated eNOS activity, later phase (≥15 min) or 30 min",eNOS,did not affect; also recorded: no effect
same,effect on insulin-induced eNOS activity,"eNOS; insulin 100 nM, 30 min",did not affect; also recorded: no inhibitory effect
same,"effect on basal eNOS activity, substance alone",eNOS; no E2,nor had any effects by itself; also recorded: no effect
same,effect on E2-stimulated ER-α-associated PI3-kinase activity,ER-α / PI3-kinase p85α,not

# Reference: US6566081B1, “Methods of identifying a compound which modulates the non-transcriptional non-map-kinase induced effects of steroid hormones” (The Brigham and Women's Hospital, Inc., priority 1999, dated 2003)
